Literature values as cited in patent US20110117194A1, “PHARMACEUTICAL FORMULATION CONTAINING ANGIOTENSIN-II RECEPTOR BLOCKER” (priority 2008, published 2011).

CCCCc1nc(Cl)c(CO)n1Cc1ccc(-c2ccccc2-c2nn[nH]n2)cc1 [losartan]
time to peak blood concentration (active losartan molecule released into blood): ≤ 1 h | plasma clearance rate (in vivo): 600 mL/min
